Test results: patent publication US12479848B2, “Substituted fused heteroaromatic bicyclic compounds as kinase inhibitors and the use thereof” (IMPACT THERAPEUTICS (SHANGHAI), INC, priority 2019, dated 2025)
pIC50: −log10 of the molar value. Like-named read-outs stand apart in the source and are kept apart here.

Legend:
ATR/ATRIP enzyme = target: T1, ATR/ATRIP enzyme (Homo sapiens, UniProt Q13535); assay: ATR enzyme activity experiment (HTRF); type: biochemical; settings: for IC50: read-out: IC50 (nM), inhibitory effects on ATR kinase activity; for IC50 / pIC50: HTRF, p53 substrate, 30 minutes at room temperature
T1 construct: purchased Eurofins 14-953
Procedure: The test compound was diluted to a 4× final concentration with reaction buffer (25 mM HEPES (pH8.0), 10 mM MnCl2, 1% glycerol, 0.01% Brij-35, 5 mM DTT and 0.1% BSA). […] The mixture was centrifuged at 1000 rpm for 1 minute, and reacted at room temperature protected from light for 30 minutes. Then 5 μL of EDTA stop solution (250 mM) was added to stop the reaction. […] Data were analyzed using GraphPad Prism6.0, and fitted using the curve equation: Y=Bottom+(Top−Bottom)/(1+10^((Log IC50−X)*HillSlope)) and IC50 values were calculated.

[1] = tested on: human colon cancer cell LoVo; assay: MTT proliferation assay, LoVo; type: cell-based; settings: for IC50: Homo sapiens, LoVo, 96 h, 4 days, read-out: IC50 (nM), inhibition of proliferation of LoVo
Procedure: The cells were seeded into 96-well cell culture plate with a density of 2000/4000 cells per well and incubated overnight in a 5% CO2 incubator at 37° C. […] 5 μL diluent of each concentration was added to 120 μL of medium (25 times diluted) and mixed by shaking. The overnight cell plates were taken and the culture medium was removed, 195 μL of fresh medium was added to each well, and 5 μL of diluted medium containing the corresponding concentration of the test compound was added respectively (the final concentration of DMSO is 1%), and the culture plate was then placed in a 5% CO2 incubator at 37° C. for 4 days. After removing the original solution, 100 μL of fresh serum-free DMEM medium containing MTT (0.5 mg/mL) was added to each well, the culture was continued. […] Cell viability (%)=(ODcompound−ODbackground)/(ODDMSO-ODbackground)×100. GraphPad Prism 6.0 was used to analyze the data. The inhibitory activity of compounds on cell proliferation was plotted based on cell viability and the logarithm of compound concentration.

[2] = tested on: human prostate cancer cell DU145; assay: MTT proliferation assay, DU145; type: cell-based; settings: for IC50: Homo sapiens, DU-145, 96 h, 4 days, read-out: IC50 (nM), inhibition of proliferation of DU145
Procedure: The cells were digested by trypsinase and centrifuged at 800 rpm for 5 minutes, the supernatant was discarded, and the residual was resuspended with fresh medium (DMEM medium+10% FBS+non-essential amino acid) and counted. The cells were seeded into 96-well cell culture plate with a density of 2000 cells per well and incubated overnight in a 5% CO2 incubator at 37° C. […] 5 μL of each concentration was added to 120 μL of medium (25 times diluted) and mixed by shaking. The overnight cell plates were taken and the culture medium was removed, 195 μL of fresh medium was added to each well, and 5 μL of diluted medium containing the corresponding concentration of the test compound was added respectively (the final concentrations of compounds are shown in Table 3, the final concentration of DMSO is 1%), and the culture plate was then placed in a 5% CO2 incubator at 37° C. for 4 days. After removing the original solution, 100 μL of fresh serum-free DMEM medium containing MTT (0.5 mg/mL) was added to each well, the culture was continued. […] GraphPad Prism 6.0 was used to analyze the data. The inhibitory activity of compounds on cell proliferation was plotted based on cell viability and the logarithm of compound concentration. Cell viability %=(ODcompound−ODbackground)/(ODDMSO−ODbackground)×100.

[3] = tested on: human lung cancer cell NCI-H460; assay: MTT proliferation assay, NCI-H460; type: cell-based; settings: for IC50: Homo sapiens, NCI-H460, 96 h, 4 days, read-out: IC50 (nM), inhibition of proliferation of NCI-H460
Procedure: The cells were seeded into 96-well cell culture plate with a density of 2000/4000 cells per well and incubated overnight in a 5% CO2 incubator at 37° C. […] diluent of each concentration was added to 120 μL of medium (25 times diluted) and mixed by shaking. The overnight cell plates were taken and the culture medium was removed, 195 μL of fresh medium was added to each well, and 5 μL of diluted medium containing the corresponding concentration of the test compound was added respectively (the final concentration of DMSO is 1%), and the culture plate was then placed in a 5% CO2 incubator at 37° C. for 4 days. After removing the original solution, 100 μL of fresh serum-free DMEM medium containing MTT (0.5 mg/mL) was added to each well, the culture was continued. […] Cell viability (%)=(ODcompound−ODbackground)/(ODDMSO−ODbackground)×100. GraphPad Prism 6.0 was used to analyze the data. The inhibitory activity of compounds on cell proliferation was plotted based on cell viability and the logarithm of compound concentration.

T1 sequence (Q13535 whole entry): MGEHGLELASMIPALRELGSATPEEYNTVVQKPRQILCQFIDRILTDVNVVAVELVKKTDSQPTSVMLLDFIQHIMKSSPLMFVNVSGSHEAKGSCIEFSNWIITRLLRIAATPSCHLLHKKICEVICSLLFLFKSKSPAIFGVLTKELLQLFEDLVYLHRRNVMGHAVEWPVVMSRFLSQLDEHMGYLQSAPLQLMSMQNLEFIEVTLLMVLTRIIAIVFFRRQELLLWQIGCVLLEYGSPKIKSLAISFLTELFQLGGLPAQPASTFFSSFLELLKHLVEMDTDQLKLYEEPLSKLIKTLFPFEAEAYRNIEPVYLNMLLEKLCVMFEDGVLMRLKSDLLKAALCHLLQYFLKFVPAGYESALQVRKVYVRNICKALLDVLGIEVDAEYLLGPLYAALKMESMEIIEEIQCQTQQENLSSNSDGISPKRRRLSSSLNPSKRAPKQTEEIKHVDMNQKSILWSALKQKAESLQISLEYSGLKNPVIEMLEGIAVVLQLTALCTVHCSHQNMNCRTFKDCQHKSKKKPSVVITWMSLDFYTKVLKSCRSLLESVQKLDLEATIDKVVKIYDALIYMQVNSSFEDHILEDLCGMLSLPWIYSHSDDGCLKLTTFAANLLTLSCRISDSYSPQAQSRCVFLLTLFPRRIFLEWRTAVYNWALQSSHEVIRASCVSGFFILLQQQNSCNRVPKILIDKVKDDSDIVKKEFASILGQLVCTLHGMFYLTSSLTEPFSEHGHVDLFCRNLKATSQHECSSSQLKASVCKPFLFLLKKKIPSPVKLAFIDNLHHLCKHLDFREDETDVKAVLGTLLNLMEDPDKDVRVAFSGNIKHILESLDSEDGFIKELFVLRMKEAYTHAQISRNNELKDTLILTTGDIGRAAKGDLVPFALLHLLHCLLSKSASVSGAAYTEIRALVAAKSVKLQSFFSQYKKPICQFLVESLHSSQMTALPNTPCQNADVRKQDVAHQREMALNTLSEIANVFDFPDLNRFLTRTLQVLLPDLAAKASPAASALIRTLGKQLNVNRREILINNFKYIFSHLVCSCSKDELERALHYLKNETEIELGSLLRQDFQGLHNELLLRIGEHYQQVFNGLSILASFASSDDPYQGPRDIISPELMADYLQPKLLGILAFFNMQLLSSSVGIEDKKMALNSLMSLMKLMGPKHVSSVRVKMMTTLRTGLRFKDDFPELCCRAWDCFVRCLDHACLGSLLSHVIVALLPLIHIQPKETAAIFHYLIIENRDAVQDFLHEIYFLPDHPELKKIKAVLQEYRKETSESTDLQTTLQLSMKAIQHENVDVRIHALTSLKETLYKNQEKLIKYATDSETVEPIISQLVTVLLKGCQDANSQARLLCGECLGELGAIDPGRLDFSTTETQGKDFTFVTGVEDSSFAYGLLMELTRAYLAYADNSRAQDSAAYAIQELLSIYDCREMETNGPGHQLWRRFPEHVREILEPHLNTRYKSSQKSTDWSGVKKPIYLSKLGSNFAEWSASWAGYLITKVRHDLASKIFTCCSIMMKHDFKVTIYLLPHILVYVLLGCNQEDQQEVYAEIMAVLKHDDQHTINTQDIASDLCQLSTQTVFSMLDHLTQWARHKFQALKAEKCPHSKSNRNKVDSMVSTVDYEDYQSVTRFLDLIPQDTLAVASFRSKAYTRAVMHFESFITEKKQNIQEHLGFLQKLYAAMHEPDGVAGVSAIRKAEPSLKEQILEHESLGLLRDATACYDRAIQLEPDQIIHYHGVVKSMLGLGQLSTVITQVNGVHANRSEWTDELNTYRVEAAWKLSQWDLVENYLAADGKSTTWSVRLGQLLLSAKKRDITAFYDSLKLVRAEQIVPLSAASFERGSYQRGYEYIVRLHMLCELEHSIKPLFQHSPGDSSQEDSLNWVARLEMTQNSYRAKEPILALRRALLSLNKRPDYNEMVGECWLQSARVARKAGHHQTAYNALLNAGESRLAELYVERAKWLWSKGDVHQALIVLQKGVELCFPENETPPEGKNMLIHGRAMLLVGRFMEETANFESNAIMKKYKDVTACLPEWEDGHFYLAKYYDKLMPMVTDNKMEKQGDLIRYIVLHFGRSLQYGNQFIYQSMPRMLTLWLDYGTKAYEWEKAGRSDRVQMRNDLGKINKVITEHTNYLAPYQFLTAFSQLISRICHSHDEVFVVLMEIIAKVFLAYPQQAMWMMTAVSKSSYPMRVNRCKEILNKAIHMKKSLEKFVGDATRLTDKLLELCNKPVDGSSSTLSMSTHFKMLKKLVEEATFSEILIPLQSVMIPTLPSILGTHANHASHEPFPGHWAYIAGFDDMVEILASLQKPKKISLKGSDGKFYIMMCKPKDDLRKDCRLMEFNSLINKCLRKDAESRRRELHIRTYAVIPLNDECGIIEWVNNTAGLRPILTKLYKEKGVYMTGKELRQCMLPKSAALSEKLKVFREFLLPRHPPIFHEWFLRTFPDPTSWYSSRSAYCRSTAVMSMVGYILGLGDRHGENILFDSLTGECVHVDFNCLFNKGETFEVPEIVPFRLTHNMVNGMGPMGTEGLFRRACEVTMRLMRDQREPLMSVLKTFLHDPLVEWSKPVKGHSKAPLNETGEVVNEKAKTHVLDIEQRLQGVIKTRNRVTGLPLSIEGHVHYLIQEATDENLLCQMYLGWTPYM
T1 sequence (Q8WXE1 whole entry partner): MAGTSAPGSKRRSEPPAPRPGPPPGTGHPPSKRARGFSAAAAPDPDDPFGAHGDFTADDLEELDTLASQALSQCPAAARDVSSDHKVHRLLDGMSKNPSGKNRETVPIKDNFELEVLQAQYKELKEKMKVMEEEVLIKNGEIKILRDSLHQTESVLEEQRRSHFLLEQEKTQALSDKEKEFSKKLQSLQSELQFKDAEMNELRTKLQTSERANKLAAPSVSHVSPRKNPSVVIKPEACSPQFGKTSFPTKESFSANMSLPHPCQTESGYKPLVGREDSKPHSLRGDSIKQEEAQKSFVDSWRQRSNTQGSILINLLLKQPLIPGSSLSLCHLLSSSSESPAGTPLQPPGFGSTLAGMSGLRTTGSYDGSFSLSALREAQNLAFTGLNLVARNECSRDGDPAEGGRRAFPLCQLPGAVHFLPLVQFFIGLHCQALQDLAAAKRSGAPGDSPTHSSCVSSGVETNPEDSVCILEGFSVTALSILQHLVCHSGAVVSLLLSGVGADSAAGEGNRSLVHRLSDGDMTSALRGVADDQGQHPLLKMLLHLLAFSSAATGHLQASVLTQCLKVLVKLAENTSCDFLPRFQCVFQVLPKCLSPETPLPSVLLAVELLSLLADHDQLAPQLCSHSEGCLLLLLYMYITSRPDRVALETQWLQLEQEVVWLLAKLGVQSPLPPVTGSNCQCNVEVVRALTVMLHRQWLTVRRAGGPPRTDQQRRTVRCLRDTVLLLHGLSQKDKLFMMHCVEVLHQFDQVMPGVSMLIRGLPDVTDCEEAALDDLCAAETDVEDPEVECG

| IC50 [2] [nM] | IC50 [3] [nM] | IC50 [1] [nM] | pIC50 (ATR/ATRIP enzyme) | SMILES | also measured |
| --- | --- | --- | --- | --- | --- |
| 1220 | 907 | – | – | C[C@@H]1COCCN1c1cc(-c2ccnn2C)c2ncc(-c3ccn[nH]3)n2n1 [Example 2, (R)-3-methyl-4-(8-(1-methyl-1H-pyrazol-5-yl)-3-(1H-pyrazol-5-yl)imidazo[1,2-b]pyridazin-6-yl)morpholine] | IC50 (ATR/ATRIP enzyme): 938 nM; inhibitory effect on the proliferation of LoVo cell (in words) [1]: inhibitory effect; inhibitory effect on the proliferation of DU145 cell (in words) [2]: inhibitory effect; inhibitory effect on the proliferation of NCI-H460 cell (in words) [3]: inhibitory effect |
| 1100 | 1040 | – | – | CCn1nccc1-c1cc(N2CCOC[C@H]2C)nn2c(-c3ccn[nH]3)cnc12 [Example 3, (R)-3-methyl-4-(8-(1-ethyl-1H-pyrazol-5-yl)-3-(1H-pyrazol-5-yl)imidazo[1,2-b]pyridazin-6-yl)morpholine] | – |
| 1090 | 531 | – | – | CC(C)n1nccc1-c1cc(N2CCOC[C@H]2C)nn2c(-c3ccn[nH]3)cnc12 [Example 4, (R)-3-methyl-4-(8-(1-isopropyl-1H-pyrazol-5-yl)-3-(1H-pyrazol-5-yl)imidazo[1,2-b]pyridazin-6-yl)morpholine] | – |
| 914 | 322 | – | – | Cc1ccc(-c2cc(N3CCOC[C@H]3C)nn3c(-c4ccn[nH]4)cnc23)cn1 [Example 6, (R)-3-methyl-4-(8-(6-methylpyridin-3-yl)-3-(1H-pyrazol-5-yl)imidazo[1,2-b]pyridazin-6-yl)morpholine] | – |
| 1200 | 864 | – | – | C[C@@H]1COCCN1c1cc(-c2ccc(S(C)(=O)=O)cc2)c2ncc(-c3ccn[nH]3)n2n1 [Example 7, (R)-3-methyl-4-(8-(4-(methylsulfonyl)phenyl)-3-(1H-pyrazol-5-yl)imidazo[1,2-b]pyridazin-6-yl)morpholine] | – |
| 1110 | 409 | – | – | C[C@@H]1COCCN1c1cc(-c2ccccc2F)c2ncc(-c3ccn[nH]3)n2n1 [Example 8, (R)-3-methyl-4-(8-(2-fluorophenyl)-3-(1H-pyrazol-5-yl)imidazo[1,2-b]pyridazin-6-yl)morpholine] | – |
| 1630 | 583 | – | – | C[C@@H]1COCCN1c1cc(N2CCOCC2)c2ncc(-c3ccn[nH]3)n2n1 [Example 9, (R)-3-methyl-4-(8-morpholino-3-(1H-pyrazol-5-yl)imidazo[1,2-b]pyridazin-6-yl)morpholine] | – |
| 2300 | 1110 | – | – | C[C@@H]1CN(c2cc(N3CCOC[C@H]3C)nn3c(-c4ccn[nH]4)cnc23)C[C@H](C)O1 [Example 10, (2S,6R)-2,6-dimethyl-4-(6-((R)-3-methylmorpholino)-3-(1H-pyrazol-5-yl)imidazo[1,2-b]pyridazin-8-yl)morpholine] | – |
| 131 | 41.3 | 53.5 | – | C[C@@H]1COCCN1c1cc(-c2ccnn2C)c2cnc(-c3ccn[nH]3)n2n1 [Example 13, (R)-3-methyl-4-(4-(1-methyl-1H-pyrazol-5-yl)-7-(1H-pyrazol-5-yl)imidazo[1,5-b]pyridazin-2-yl)morpholine] | inhibitory effect on ATR kinase activity (in words) (ATR/ATRIP enzyme; ATR enzyme activity experiment): good inhibitory effect; IC50 (ATR/ATRIP enzyme): 4 nM; inhibitory effect on the proliferation of LoVo cell (in words) [1]: good inhibitory effect; inhibitory effect on the proliferation of DU145 cell (in words) [2]: good inhibitory effect; inhibitory effect on the proliferation of NCI-H460 cell (in words) [3]: good inhibitory effect |
| 1370 | 527 | – | – | C[C@@H]1COCCN1c1cc(-c2ccnn2C)n2ncc(-c3ccn[nH]3)c2n1 [Example 16, (R)-3-methyl-4-(7-(1-methyl-1H-pyrazol-5-yl)-3-(1H-pyrazol-5-yl)pyrazolo[1,5-a]pyrimidin-5-yl)morpholine] | – |
| – | 30.6 | 44.7 | 8.70 | Cc1ncccc1-c1cc(N2CCOC[C@H]2C)nn2c(-c3ccn[nH]3)ncc12 [Example 42, (R)-3-methyl-4-(4-(2-methylpyridin-3-yl)-7-(1H-pyrazol-5-yl)imidazo[1,5-b]pyridazin-2-yl)morpholine] | – |
| – | 18.2 | 23.1 | 7.92 | C[C@@H]1COCCN1c1cc(-c2ccncc2F)c2cnc(-c3ccn[nH]3)n2n1 [Example 43, (R)-4-(4-(3-fluoropyridin-4-yl)-7-(1H-pyrazol-5-yl)imidazo[1,5-b]pyridazin-2-yl)-3-methylmorpholine] | – |
| – | 289 | 138 | – | Cc1cc(S(C)(=O)=O)ncc1-c1cc(N2CCOC[C@H]2C)nn2c(-c3ccn[nH]3)ncc12 [Example 44, (R)-3-methyl-4-(4-(4-methyl-6-(methylsulfonyl)pyridin-3-yl)-7-(1H-pyrazol-5-yl)imidazo[1,5-b]pyridazin-2-yl)morpholine] | inhibition at 0.05 µM (ATR/ATRIP enzyme; read-out: Inh %, inhibitory effects on ATR kinase activity at 50 nM): 58% |
| – | 78.8 | 84.2 | 8.30 | Cc1ncncc1-c1cc(N2CCOC[C@H]2C)nn2c(-c3ccn[nH]3)ncc12 [Example 45, (R)-3-methyl-4-(4-(4-methylpyrimidin-5-yl)-7-(1H-pyrazol-5-yl)imidazo[1,5-b]pyridazin-2-yl)morpholine] | – |
| – | 77.8 | 72.8 | 7.92 | C[C@@H]1COCCN1c1cc(N2CCOCC2)c2cnc(-c3ccn[nH]3)n2n1 [Example 46, (R)-3-methyl-4-(4-morpholino-7-(1H-pyrazol-5-yl)imidazo[1,5-b]pyridazin-2-yl)morpholine] | – |
| – | 18.2 | 20.7 | 9.00 | C[C@@H]1COCCN1c1cc(-c2cccnc2C(F)(F)F)c2cnc(-c3ccn[nH]3)n2n1 [Example 47, (R)-4-(7-(1H-pyrazol-5-yl)-4-(2-(trifluoromethyl)pyridin-3-yl)imidazo[1,5-b]pyridazin-2-yl)-3-methylmorpholine] | – |
| – | 156 | 133 | 7.96 | Cc1nc(S(C)(=O)=O)ccc1-c1cc(N2CCOC[C@H]2C)nn2c(-c3ccn[nH]3)ncc12 [Example 48, (R)-3-methyl-4-(4-(2-methyl-6-(methylsulfonyl)pyridin-3-yl)-7-(1H-pyrazol-5-yl)imidazo[1,5-b]pyridazin-2-yl)morpholine] | – |
| – | 43 | 32.9 | 8.22 | Cc1cc(S(C)(=O)=O)ccc1-c1cc(N2CCOC[C@H]2C)nn2c(-c3ccn[nH]3)ncc12 [Example 49, (R)-3-methyl-4-(4-(2-methyl-4-(methylsulfonyl)phenyl)-7-(1H-pyrazol-5-yl)imidazo[1,5-b]pyridazin-2-yl)morpholine] | – |
| – | 86.8 | 59.9 | 7.80 | Cc1nc([S+](C)[O-])ccc1-c1cc(N2CCOC[C@H]2C)nn2c(-c3ccn[nH]3)ncc12 (stereo partly drawn) [Example 50, (3R)-3-methyl-4-(4-(2-methyl-6-(methylsulfinyl)pyridin-3-yl)-7-(1H-pyrazol-5-yl)imidazo[1,5-b]pyridazin-2-yl)morpholine] | – |
| – | 26.3 | 41.9 | 8.05 | C[C@@H]1COCCN1c1cc(-c2cccc(C#N)c2)c2cnc(-c3ccn[nH]3)n2n1 [Example 52, (R)-3-(2-(3-methylmorpholino)-7-(1H-pyrazol-5-yl)imidazo[1,5-b]pyridazin-4-yl)benzonitrile] | – |
